The results in this text go back to US12617757B2, “Compounds and modules for inhibition of pre-miR-21 and their use in treatment of certain cancers” (University of Florida Research Foundation, Incorporated, priority 2019, dated 2026).

For one data set, the system named is PTEN. Kind of data set: PTEN 3′ UTR luciferase reporter assay in MDA-MB-231 cells. Type of data set: cell-based, human. On the procedure:
PTEN Luciferase Assay. The MDA-MB-231 cells were grown in 48-well plates to ˜60% confluency and then transiently co-transfected with a Firefly luciferase plasmid encoding the 3′ untranslated region (UTR) of PTEN^25 and a control Renilla luciferase plasmid using Lipofectamine 2000 per the manufacturer's protocol. At 5 h post-transfection, compounds diluted in growth medium were added to cells and then incubated for 48 h. Luciferase assays were completed using a previously described protocol^23,26. Luminescence signal was measured on a Biotek Flx800 plate reader.

In a further data set the test system is pre-miR-21 BP. Kind of data set: MST binding to pre-miR-21 BP (base paired control). The following applies: addition of 100 μM of compound. The procedure: Microscale Thermophoresis (MST) Binding Measurements. MST fluorescent measurements were performed on a Monolith NT.115 system (NanoTemper Technologies) using the fluorescence of a miR-21 hairpin (A+U Bulge): (5′ Cy5-[…]-3′) (SEQ ID NO: 1) or a miR-21 base paired control (5′ Cy5-[…]-3′) (SEQ ID NO: 2) which were purchased from IDT with RNase-free HPLC purification and used without further purification. The RNA (5 nM) was diluted in 1×MST Buffer (8 mM Na2HPO4, 190 mM NaCl, 1 mM EDTA, and 0.05% (v/v) Tween-20) and folded by heating at 60° C. for 5 min, and slowly cooling to room temperature. Compounds 1 and 2 were diluted in 1×MST Buffer, followed by 1:3 dilutions in 1×MST Buffer containing 5 nM RNA. […] Fluorescence measurements (Ex: 605-645 nm, Em: 680-685 nm) were performed at 10% LED and 80% MST power, with a Laser-On time of 30 s and Laser-Off time of 5 s. The data were analyzed by thermophoresis analysis and fitted by the quadratic binding equation in MST analysis software (NanoTemper Technologies). Dissociation constants were then determined by curve fitting using a single-site model. Normalized MST signal was calculated by normalizing the fluorescent signals using the MST data of 1 binding to pre-miR-21 WT with the lowest signal as 0 and the highest fluorescent signal as 1.

Data set [1] concerns miR-21-5p in HEK293T cells. Kind of data set: RT-qPCR of mature miR-21-5p in HEK293T cells (dimer linker screening). Type of data set: cell-based. The settings on record: n=3, n=4 and 1. Background: Real-time PCR tracks product formation cycle by cycle.
The next data set deals with pre-miR-21 BP RNA. Kind of data set: In vitro Dicer processing of pre-miR-21 BP. It is filed as biochemical. The text has this:
In vitro Dicer processing. […] Cleavage products were resolved on a denaturing 15% polyacrylamide gel, which was imaged using a Molecular Dynamics Typhoon phosphorimager and quantified with Bio-Rad's QuantityOne software, normalizing to full length RNA.

Data set [2] is described as follows: DMPK: plasma levels in C57BL/6 mice. It is filed as in vivo, mouse. The following applies: i.p., 10 mg/kg. On the procedure:
DMPK Measurements: Male C57BL/6 mice (n=3, 5-7 weeks) were used for pharmacokinetics (PK) assessment. Mice were dosed i.p. (10 mg/kg) with 5 in a formulation of DMSO/Tween-80/H2O (10/10/80) and blood (25 μL) was drawn at 0.25, 0.5, 1, 2, 4, 6, 8, and 24 h time points. Detection of compound levels in blood plasma was determined using LC/MS-MS on a QTRAP 5500 LC-MS/MS System (AB Sciex).

SMILES strings stand for the structures.

For `CCCN(CC(=O)N(CCC)CC(=O)N(CCC)CC(=O)N(CC(N)=O)Cc1cn(CCCNC(=O)CCCOc2ccc(-c3nc4cc(-c5ccc(N6CCN(C)CC6)cc5)ccc4[nH]3)cc2)nn1)C(=O)CNCc1cn(CCCNC(=O)CCCOc2ccc(-c3nc4cc(-c5ccc(N6CCN(C)CC6)cc5)ccc4[nH]3)cc2)nn1` [Compound 2], the “increase of PTEN luciferase signal relative to mock or scramble controls” value in the data set on PTEN was roughly 1.5 fold. In addition, in the data set on PTEN (10 μM), the “increase of PTEN levels” value is roughly 50%. Also, the “saturation of the binding isotherm” value in the data set with pre-miR-21 BP was “No saturation of the binding isotherm was observed”. Also, the “inhibition of miR-21 levels, dose response of linker lengths” value in data set [1] is “most significantly inhibited miR-21 levels”. In addition, the “protection from Dicer processing” value with pre-miR-21 BP RNA is “Protection with compound is observed at U26 and U27”.
`CCCN(CC(=O)N(CCC)CC(=O)N(CCC)CC(=O)N(CC(=O)NCCOCCOCCOCCOc1ccc(C=C2SC(Nc3ccccc3)=C(C(=O)OCC)C2=O)cc1O)Cc1cn(CCCNC(=O)CCCOc2ccc(-c3nc4cc(-c5ccc(N6CCN(C)CC6)cc5)ccc4[nH]3)cc2)nn1)C(=O)CN(Cc1cn(CCCNC(=O)CCCOc2ccc(-c3nc4cc(-c5ccc(N6CCN(C)CC6)cc5)ccc4[nH]3)cc2)nn1)C(C)=O` [Compound 5]: the “concentrations maintained in mice (plasma)” value in data set [2] is “low nanomolar concentrations”.
